# Results from US20090270440A1, “BIOAVAILABILITY OF ACTIVE SUBSTANCES HAVING AN AMIDINE FUNCTION IN MEDICAMENTS” (Drite Patentportfolio Beteilligungsgesellschaft mbH & Co. KG, priority 2006, published 2009).
# What was measured:
# [1] = literature value (Clement, Lopian 2003); cited from earlier work
# [2] = Oral bioavailability and metabolism study of N,N′-dihydroxybenzamidine in pigs (plasma levels by HPLC); type: in vivo
# Procedure: Metabolism of N,N′-dihydroxybenzamidine to benzamidine in vivo proceeds in the following way:
# In order to be able to ascertain the exact dosage of the substances, the animals were weighed once a week. The daily weight gain was calculated from the data. The substances to be administered orally were mixed into the moistened, ground feed concentrate. The substances given intravenously were dissolved in 0.9% NaCl solution in order to avoid hemolysis.
# Directly before injection into the indwelling vein catheter, the solution was filtered in order to avoid induction of thrombus formation by any undissolved portions. The injection was followed by flushing with at least 10 ml of 0.9% NaCl solution again. The substance was administered in the morning on each occasion. A washout period took place the next day on each occasion in order to ensure complete excretion of the medicinal substance.
# The orally administered doses of N,N′-dihydroxy-benzamidine were in each case 10 mg/kg of body weight (BW). The concentration of the substances administered intravenously as bolus was 2 mg/kg BW. Benzamidine and N,N′-dihydroxybenzamidine were likewise administered intravenously. The samples were taken at previously fixed times. The experimental period for one condition lasted one day. The blood samples were obtained over a period of 24 hours after administration of the substance. After oral administration, the samples were taken after 0, 30, 60, 90, 120, 150, 180, 240, 360, 480, 720 and 1440 minutes. After intravenous administration, an additional sample was taken after 5 and 15 minutes. The whole blood obtained was transferred into heparin tubes and centrifuged (4° C., 10 min, 1500 g). After centrifugation, about 4 ml of plasma were removed as supernatant, pipetted into Eppendorf vessels and frozen at −80° C. The plasma samples were slowly thawed and then centrifuged at 7000 rpm for 3 minutes, worked up by solid-phase extraction and passed on for HPLC.
Reduction of prodrug to the active form (amidine) in the blood ([2]; after oral administration),Metabolite benzamide oxime in plasma after injection ([2]; i.v. 2 mg/kg BW),Reduction of prodrug to the amidine after injection ([2]; i.v. 2 mg/kg BW),Absorption after oral administration ([2]; oral 10 mg/kg BW),Compound,Oral bioavailability [1]
–,–,–,–,CCOC(=O)CN[C@@H](C(=O)N1CC[C@H]1C(=O)NCc1ccc(/C(N)=N\O)cc1)C1CCCCC1 [ximelagatran],14%
rapidly reduced to the active form,benzamide oxime also being detectable,rapidly reduced to the amidine,almost completely absorbed,"O/N=C(/NO)c1ccccc1 [N,N′-dihydroxybenzamidine]",–
–,–,–,–,N=C(N)c1ccc(CNC(=O)[C@@H]2CCN2C(=O)[C@H](NCC(=O)O)C2CCCCC2)cc1 [melagatran],7%
